Test results taken from patent US9850227B2 (YUHAN CORPORATION, priority 2011, dated 2017).
Counter-ions that a name gives are not always drawn.

Biological target: T1, human 5-HT4(a) (Homo sapiens, UniProt Q13639)
T1 construct: host or cells: GeneBIAzer HTR4-CRE-bla CHO-K1 cells
Test: Evaluation of agonistic activity in CHO-K1 cells expressing human 5-HT4(a) (GeneBIAzer HTR4-CRE-bla CHO-K1 cells, beta-lactamase fluorescence ratio, EC50 from 8 concentrations)
Assay type: cell-based
Method: Evaluation of Agonistic Activity in CHO-K1 Cells Expressing Human 5-HT4(a)
As CHO-K1 cells stably expressing human 5-HT4(a), we used the GeneBIAzer HTR4-CRE-bla CHO-K1 cells (Invitrogen Corp.). The cells were cultured, under the condition of 37° C. and 5% CO2, in a DMEM supplemented with 10% fetal bovine serum (FBS), 25 mM HEPES (pH7.4), 600 μg/ml hygromycin B, 0.1 mM non-essential amino acids, 100 unit/ml penicillin and 100 μg/ml streptomycin. Subcultures were performed three times per one week, each being at less than 80% confluence. At the previous day before treating test compounds, the cells were collected using 0.5% trypsin/EDTA and then diluted with a DMEM supplemented with 1% FBS, 25 mM HEPES, and 0.1 mM non-essential amino acids into 3.125×10^5 cells/ml. 32 μl of the diluted cells were added into 384-well plate (10^4 cells per well) and then incubated overnight. After the overnight culture, 8 μl of the medium having 1% of DMSO was added into the cell-free control well and the non-stimulating control well, respectively. 8 μl of the respective test compound dilutions (which had been prepared by diluting by 100-times with the medium as mentioned in the above) having 1% of DMSO were added to the respective remaining wells. After being cultured in the incubator for 5 hours, the wells of the 384-plate were treated with the substrate solution (8 μl per well) prepared according to the vendor's instruction (i.e., Invitrogen's instruction), and then incubated in the dark room for additional two hours. Agonistic activities on 5-HT4 receptor were evaluated, on the basis of fluorescence values of the cleavage-products by beta-lactamase. After exciting to 410 nm of wavelength using a fluorescence detector (Genios Pro), we measured the fluorescence values at two emission wavelengths (first wavelength: 465 nm, second wavelength: 535 nm). Data were analyzed on the basis of the ratio of fluorescence intensities of each well at the respective wavelengths. Each EC50 value was calculated by non-linear regression analysis using the “GraphPad Prism” program, based on the activities according to 8-different concentrations of the test compounds.

T1 sequence (Q13639 1-387 isoform Q13639-2): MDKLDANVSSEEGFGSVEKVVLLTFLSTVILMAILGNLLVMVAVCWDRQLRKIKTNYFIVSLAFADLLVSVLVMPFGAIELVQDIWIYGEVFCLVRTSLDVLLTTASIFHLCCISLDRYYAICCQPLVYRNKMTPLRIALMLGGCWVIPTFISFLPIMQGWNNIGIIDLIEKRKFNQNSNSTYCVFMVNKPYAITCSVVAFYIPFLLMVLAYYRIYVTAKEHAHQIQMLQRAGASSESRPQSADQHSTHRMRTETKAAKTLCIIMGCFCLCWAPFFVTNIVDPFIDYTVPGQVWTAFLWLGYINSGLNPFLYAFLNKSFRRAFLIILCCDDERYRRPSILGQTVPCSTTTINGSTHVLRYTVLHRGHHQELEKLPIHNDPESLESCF

| EC50 | Compound |
| --- | --- |
| 0.008 nM | CCCc1cc(N2CCC[C@@H](NCC)C2)nc(Nc2ccc(C)c(C#N)c2)n1 [Example 205, (R)-5-{4-[3-(ethylamino)piperidin-1-yl]-6-propylpyrimidin-2-ylamino}-2-methylbenzonitrile] |
| 0.0087 nM | CCCN[C@@H]1CCCN(c2cc(CCC)nc(Nc3ccc(C)c(C#N)c3)n2)C1 [Example 206, (R)-5-{4-[3-(propylamino)piperidin-1-yl]-6-propylpyrimidin-2-ylamino}-2-methylbenzonitrile] |
| 0.013 nM | CCCCN[C@@H]1CCCN(c2cc(CCC)nc(Nc3ccc(C)c(C#N)c3)n2)C1 [Example 207, (R)-5-{4-[3-(butylamino)piperidin-1-yl]-6-propylpyrimidin-2-ylamino}-2-methylbenzonitrile] |
| 0.029 nM | CCCCCN[C@@H]1CCCN(c2cc(CCC)nc(Nc3ccc(C)c(C#N)c3)n2)C1 [Example 208, (R)-2-methyl-5-{4-[3-(pentylamino)piperidin-1-yl]-6-propylpyrimidin-2-ylamino}benzonitrile] |
| 0.015 nM | CCCc1cc(N2CCC[C@@H](NCC(C)C)C2)nc(Nc2ccc(C)c(C#N)c2)n1 [Example 209, (R)-5-{4-[3-(isobutylamino)piperidin-1-yl]-6-propylpyrimidin-2-ylamino}-2-methylbenzonitrile] |
| 0.022 nM | CCCc1cc(N2CCC[C@@H](NCCC(C)C)C2)nc(Nc2ccc(C)c(C#N)c2)n1 [Example 210, (R)-5-{4-[3-(isopentylamino)piperidin-1-yl]-6-propylpyrimidin-2-ylamino}-2-methylbenzonitrile] |
| 0.016 nM | CCCc1cc(N2CCC[C@@H](NCCCSC)C2)nc(Nc2ccc(C)c(C#N)c2)n1 [Example 216, (R)-2-methyl-5-{4-[3-(3-methylthiopropylamino)piperidin-1-yl]-6-propylpyrimidin-2-ylamino}benzonitrile] |
| 0.056 nM | CCCc1cc(N2CCC[C@@H](N)C2)nc(Nc2ccc(F)c(C#N)c2)n1 [Example 222, (R)-5-[4-(3-aminopiperidin-1-yl)-6-propylpyrimidin-2-ylamino]-2-fluorobenzonitrile dihydrochloride] |
| 0.045 nM | CCCN[C@@H]1CCCN(c2cc(CCC)nc(Nc3cccc(C#N)c3)n2)C1 [Example 223, (R)-3-{4-[3-(propylamino)piperidin-1-yl]-6-propylpyrimidin-2-ylamino}benzonitrile] |
| 0.021 nM | CCCN[C@@H]1CCCN(c2cc(CCC)nc(Nc3ccc(F)c(C#N)c3)n2)C1 [Example 225, (R)-2-fluoro-5-{4-[3-(propylamino)piperidin-1-yl]-6-propylpyrimidin-2-ylamino}benzonitrile] |
| 0.071 nM | CCCc1cc(N2CCC[C@@H](NCC3CC3)C2)nc(Nc2ccc(F)c(C#N)c2)n1 [Example 226, (R)-5-{4-[3-(cyclopropylmethylamino)piperidin-1-yl]-6-propylpyrimidin-2-ylamino}-2-fluorobenzonitrile] |

Further lines, the compound ahead of its results:

| Compound | EC50 |
| --- | --- |
| CCCc1cc(N2CCCC3CCCCC32)nc(Nc2cccc(OC)c2)n1 (centres unmarked) [Example 191, N-(3-methoxyphenyl)-4-(octahydroquinolin-1(2H)-yl)-6-propylpyrimidin-2-amine] | 0.34 nM |
| CCCc1cc(N2CCCC3CCCCC32)nc(Nc2cccc(SC)c2)n1 (centres unmarked) [Example 198, N-(3-methylthiophenyl)-4-(octahydroquinolin-1(2H)-yl)-6-propylpyrimidin-2-amine] | 0.4 nM |
| CCCc1cc(N2CCCC3CCCCC32)nc(Nc2ccc3[nH]c(C(F)(F)F)nc3c2)n1 (centres unmarked) [Example 200, N-[4-(octahydroquinolin-1(2H)-yl)-6-propylpyrimidin-2-yl]-2-(trifluoromethyl)-1H-benzo[d]imidazol-5-amine] | 0.18 nM |
| CCCc1cc(N2CCCC3CCCCC32)nc(Nc2cnc3ccccc3c2)n1 (centres unmarked) [Example 203, N-[4-(octahydroquinolin-1(2H)-yl)-6-propylpyrimidin-2-yl]quinolin-3-amine] | 0.14 nM |
| CCCc1cc(N2CCC[C@@H](NCC(C)(C)C)C2)nc(Nc2ccc(C)c(C#N)c2)n1 [Example 211, (R)-2-methyl-5-{4-[3-(neopentylamino)piperidin-1-yl]-6-propylpyrimidin-2-ylamino}benzonitrile] | 0.023 nM |
| CCCc1cc(N2CCC[C@@H](NC(C)C)C2)nc(Nc2ccc(C)c(C#N)c2)n1 [Example 212, (R)-5-{4-[3-(isopropylamino)piperidin-1-yl]-6-propylpyrimidin-2-ylamino}-2-methylbenzonitrile] | 0.1 nM |
| CCCc1cc(N2CCC[C@@H](NCc3cccs3)C2)nc(Nc2ccc(C)c(C#N)c2)n1 [Example 214, (R)-2-methyl-5-(4-propyl-6-{3-[(thiophen-2-ylmethyl)amino]piperidin-1-yl}pyrimidin-2-ylamino)benzonitrile] | 0.072 nM |
| CCCc1cc(N2CCC[C@@H](NCc3cc(C)c(C)o3)C2)nc(Nc2ccc(C)c(C#N)c2)n1 [Example 215, (R)-5-(4-{3-[(4,5-dimethylfuran-2-ylmethyl)amino]piperidin-1-yl}-6-propylpyrimidin-2-ylamino)-2-methylbenzonitrile] | 0.064 nM |
| CCCc1cc(N2CCC[C@@H](NCC3CC3)C2)nc(Nc2ccc(C)c(C#N)c2)n1 [Example 217, (R)-5-{4-[3-(cyclopropylmethylamino)piperidin-1-yl]-6-propylpyrimidin-2-ylamino}-2-methylbenzonitrile] | 0.013 nM |
| CCCc1cc(N2CCC[C@@H](NCC3CCCC3)C2)nc(Nc2ccc(C)c(C#N)c2)n1 [Example 218, (R)-5-{4-[3-(cyclopentylmethylamino)piperidin-1-yl]-6-propylpyrimidin-2-ylamino}-2-methylbenzonitrile] | 0.016 nM |
| CCCc1cc(N2CCC[C@@H](NCc3ccc(O)cc3)C2)nc(Nc2ccc(C)c(C#N)c2)n1 [Example 219, (R)-5-{4-[3-(4-hydroxybenzylamino)piperidin-1-yl]-6-propylpyrimidin-2-ylamino}-2-methylbenzonitrile] | 0.01 nM |
| CCCc1cc(N2CCC[C@@H](NC(C)=O)C2)nc(Nc2ccc(C)c(C#N)c2)n1 [Example 220, (R)—N-{1-[2-(3-cyano-4-methylphenylamino)-6-propylpyrimidin-4-yl]piperidin-3-yl}acetamide] | 0.0082 nM |
| CCCc1cc(N2CCC[C@@H](N)C2)nc(Nc2cccc(C#N)c2)n1 [Example 221, (R)-3-[4-(3-aminopiperidin-1-yl)-6-propylpyrimidin-2-ylamino]benzonitrile dihydrochloride] | 0.122 nM |
| CCCc1cc(N2CCC[C@@H](NCC3CC3)C2)nc(Nc2cccc(C#N)c2)n1 [Example 224, (R)-3-{4-[3-(cyclopropylmethylamino)piperidin-1-yl]-6-propylpyrimidin-2-ylamino}benzonitrile] | 0.07 nM |
| CCCc1cc(N2CCC[C@@H](NCC3CC3)C2)nc(Nc2ccc(F)c(N)c2)n1 [Example 227, (R)—N^1-{4-[3-(cyclopropylmethylamino)piperidin-1-yl]-6-propylpyrimidin-2-yl}-4-fluorobenzene-1,3-diamine] | 0.017 nM |
| CCCc1cc(N2CCC[C@@H](NCC3CC3)C2)nc(Nc2ccc(N)c([N+](=O)[O-])c2)n1 [Example 228, (R)—N^1-{4-[3-(cyclopropylmethylamino)piperidin-1-yl]-6-propylpyrimidin-2-yl}-3-nitrobenzene-1,4-diamine] | 0.0035 nM |
| CCCc1cc(N2CCC[C@@H](NCC3CC3)C2)nc(Nc2cc(N)cc(C#N)c2)n1 [Example 229, (R)-3-amino-5-{4-[3-(cyclopropylmethylamino)piperidin-1-yl]-6-propylpyrimidin-2-ylamino}benzonitrile] | 0.0041 nM |
| CCCc1cc(N2CCC[C@@H](NCC3CC3)C2)nc(Nc2ccc(N)c(C(F)(F)F)c2)n1 [Example 230, (R)—N^1-{4-[3-(cyclopropylmethylamino)piperidin-1-yl]-6-propylpyrimidin-2-yl}-3-(trifluoromethyl)benzene-1,4-diamine] | 0.0046 nM |
| CCCc1cc(N2CCC[C@@H](NCC3CC3)C2)nc(Nc2cc(N)cc(C(F)(F)F)c2)n1 [Example 231, (R)—N^1-{4-[3-(cyclopropylmethylamino)piperidin-1-yl]-6-propylpyrimidin-2-yl}-5-(trifluoromethyl)benzene-1,3-diamine] | 0.0063 nM |
| CCCCc1cc(N2CCC[C@@H](NC(C)=O)C2)nc(Nc2ccc(N)c([N+](=O)[O-])c2)n1 [Example 232, (R)—N-{1-[2-(4-amino-3-nitrophenylamino)-6-butylpyrimidin-4-yl]piperidin-3-yl}acetamide] | 0.0037 nM |
| CCCCc1cc(N2CCC[C@@H](NC(C)=O)C2)nc(Nc2ccc(C)c([N+](=O)[O-])c2)n1 [Example 233, (R)—N-{1-[6-butyl-2-(4-methyl-3-nitrophenylamino)pyrimidin-4-yl]piperidin-3-yl}acetamide] | 0.009 nM |
